The values below are quoted from earlier work in PubChem BioAssay AID1259409 (Chemical Carcinogenesis Research Information System (CCRIS), 2018).

The test system of the data set is rodent chemically induced tumor inhibition, incidence and multiplicity. Nature of the data set: CCRIS tumor inhibitor studies. Particulars: Route [Inhibitor]: ORAL, Species: HAMSTER, Promoter: NONE USED.

For the molecule `CC1=C(/C=C/C(C)=C/C=C/C(C)=C\C(=O)O)C(C)(C)CCC1`, the “tumour outcome (control, treated, inhibition, significance)” value is on record as 12/20 (60%), 7/14 (50%), 17%, not significant (Carcinogen: N-NITROBIS(2-OXOPROPYL)AMINE, 60559-38-4, Dose [Inhibitor]: 0.4 OR 0.8 MMOL/KG DIET DAILY STARTING 1 WK AFTER CARCINOGEN TREATMENT AND CONTINUING THROUGH THE END OF THE STUDY (STUD, Strain/Sex: SYRIAN/FEMALE, Target Tissue: Type of Lesion: PANCREAS: DUCTULAR ADENOMA, Dose [Carcinogen]: 40 MG/KG BW ONCE); 6/23 (27%), 3/23 (13%), 52%, not significant (Carcinogen: N-NITROBIS(2-OXOPROPYL)AMINE, 60559-38-4, Dose [Inhibitor]: 0.4 OR 0.8 MMOL/KG DIET DAILY STARTING 1 WK AFTER CARCINOGEN TREATMENT AND CONTINUING THROUGH THE END OF THE STUDY (STUD, Strain/Sex: SYRIAN/FEMALE, Target Tissue: Type of Lesion: PANCREAS: DUCTULAR CARCINOMA, Dose [Carcinogen]: 10 MG/KG BW ONCE); 6/20 (30%), 9/14 (64%), -113%, not significant (Carcinogen: N-NITROBIS(2-OXOPROPYL)AMINE, 60559-38-4, Dose [Inhibitor]: 0.4 OR 0.8 MMOL/KG DIET DAILY STARTING 1 WK AFTER CARCINOGEN TREATMENT AND CONTINUING THROUGH THE END OF THE STUDY (STUD, Strain/Sex: SYRIAN/FEMALE, Target Tissue: Type of Lesion: PANCREAS: DUCTULAR CARCINOMA, Dose [Carcinogen]: 40 MG/KG BW ONCE); 5/24 (21%), 9/24 (38%), -81%, not significant (Carcinogen: N-NITROBIS(2-OXOPROPYL)AMINE, 60559-38-4, Dose [Inhibitor]: 0.4 OR 0.8 MMOL/KG DIET DAILY STARTING 1 WK AFTER CARCINOGEN TREATMENT AND CONTINUING THROUGH THE END OF THE STUDY (STUD, Strain/Sex: SYRIAN/MALE, Target Tissue: Type of Lesion: PANCREAS: DUCTULAR CARCINOMA, Dose [Carcinogen]: 40 MG/KG BW ONCE); 21%, 48%, -129%, not significant (Carcinogen: N-NITROBIS(2-OXOPROPYL)AMINE, 60559-38-4, Dose [Inhibitor]: 0.4 OR 0.8 MMOL/KG/D IN DIET STARTING 1 WK AFTER CARCINOGEN TREATMENT AND CONTINUING THROUGH THE END OF THE STUDY (STUDY, Strain/Sex: SYRIAN/MALE, Target Tissue: Type of Lesion: LIVER: BENIGN TUMOR, Dose [Carcinogen]: 40 MG/KG BW ONCE); 3/22 (14%), 20/36 (56%), -300%, p<0.05 (Carcinogen: N-NITROBIS(2-OXOPROPYL)AMINE, 60559-38-4, Dose [Inhibitor]: 0.4 OR 0.8 MMOL/KG/D IN DIET STARTING 1 WK AFTER CARCINOGEN TREATMENT AND CONTINUING THROUGH THE END OF THE STUDY (STUDY, Strain/Sex: SYRIAN/MALE, Target Tissue: Type of Lesion: PANCREAS: DUCTULAR ADENOMA, Dose [Carcinogen]: 10 MG/KG BW ONCE). For the same molecule, the “tumour outcome (control, treated, inhibition, significance)” value by setting is: (Carcinogen: N-NITROBIS(2-OXOPROPYL)AMINE, 60559-38-4, Dose [Inhibitor]: 0.4 OR 0.8 MMOL/KG/D IN DIET STARTING 1 WK AFTER CARCINOGEN TREATMENT AND CONTINUING THROUGH THE END OF THE STUDY (STUDY, Strain/Sex: SYRIAN/MALE, Target Tissue: Type of Lesion: PANCREAS: DUCTULAR CARCINOMA, Dose [Carcinogen]: 10 MG/KG BW ONCE) 4/22 (18%), 8/36 (22%), -22%, not significant; (Carcinogen: N-NITROBIS(2-OXOPROPYL)AMINE, 60559-38-4, Dose [Inhibitor]: 0.5 OR 1.0 MMOL/KG/D IN DIET STARTING 1 WK AFTER CARCINOGEN TREATMENT AND CONTINUING THROUGH THE END OF THE STUDY (STUDY, Strain/Sex: SYRIAN/FEMALE, Target Tissue: Type of Lesion: PANCREAS: DUCTULAR ADENOMA, Dose [Carcinogen]: 10 MG/KG BW ONCE) 5/23 (22%), 9/23 (39%), -77%, not significant; (Carcinogen: N-NITROBIS(2-OXOPROPYL)AMINE, 60559-38-4, Dose [Inhibitor]: 0.5 OR 1.0 MMOL/KG/D IN DIET STARTING 1 WK AFTER CARCINOGEN TREATMENT AND CONTINUING THROUGH THE END OF THE STUDY (STUDY, Strain/Sex: SYRIAN/FEMALE, Target Tissue: Type of Lesion: PANCREAS: DUCTULAR CARCINOMA, Dose [Carcinogen]: 10 MG/KG BW ONCE) 6/23 (27%), 3/23 (13%), 52%, not significant; (Carcinogen: N-NITROSOBIS(2-OXYPROPYL)AMINE, 60599-38-4, Dose [Inhibitor]: 0.05, 0.1 OR 0.2 MILLIMOLAR/KG DIET FOR 32 WK STARTING 1 WK AFTER THE CARCINOGEN DOSE (STUDY DURATION: 33 WK), Strain/Sex: SYRIAN/FEMALE, Target Tissue: Type of Lesion: LUNG: ADENOMA, Dose [Carcinogen]: 40 MG/KG ONCE) 3/10 (30%), 6/26 (23%), 23%, not significant; (Carcinogen: N-NITROSOBIS(2-OXYPROPYL)AMINE, 60599-38-4, Dose [Inhibitor]: 0.05, 0.1 OR 0.2 MILLIMOLAR/KG DIET FOR 32 WK STARTING 1 WK AFTER THE CARCINOGEN DOSE (STUDY DURATION: 33 WK), Strain/Sex: SYRIAN/MALE, Target Tissue: Type of Lesion: COMMON DUCT: ADENOMA, Dose [Carcinogen]: 40 MG/KG ONCE) 4/12 (33%), 17/29 (59%), -78%, not significant; (Carcinogen: N-NITROSOBIS(2-OXYPROPYL)AMINE, 60599-38-4, Dose [Inhibitor]: 0.05, 0.1 OR 0.2 MILLIMOLAR/KG DIET FOR 32 WK STARTING 1 WK AFTER THE CARCINOGEN DOSE (STUDY DURATION: 33 WK), Strain/Sex: SYRIAN/MALE, Target Tissue: Type of Lesion: GALL BLADDER: ADENOMA, Dose [Carcinogen]: 40 MG/KG ONCE) 3/12 (25%), 12/29 (41%), -64%, not significant. The “tumour outcome (control, treated, inhibition, significance)” value (Carcinogen: N-NITROSOBIS(2-OXYPROPYL)AMINE, 60599-38-4, Dose [Inhibitor]: 0.05, 0.1 OR 0.2 MILLIMOLAR/KG DIET FOR 32 WK STARTING 1 WK AFTER THE CARCINOGEN DOSE (STUDY DURATION: 33 WK), Strain/Sex: SYRIAN/MALE, Target Tissue: Type of Lesion: LIVER: ADENOMA, Dose [Carcinogen]: 40 MG/KG ONCE) is on record as 50%, 41%, 18%, not significant; the “tumour outcome (control, treated, inhibition, significance)” value (Carcinogen: N-NITROSOBIS(2-OXYPROPYL)AMINE, 60599-38-4, Dose [Inhibitor]: 0.05, 0.1 OR 0.2 MILLIMOLAR/KG DIET FOR 32 WK STARTING 1 WK AFTER THE CARCINOGEN DOSE (STUDY DURATION: 33 WK), Strain/Sex: SYRIAN/MALE, Target Tissue: Type of Lesion: LUNG: ADENOMA, Dose [Carcinogen]: 40 MG/KG ONCE) is recorded as 1/12 (8%), 2/29 (3%), 63%, not significant; the “tumour outcome (control, treated, inhibition, significance)” value (Carcinogen: N-NITROSOBIS(2-OXYPROPYL)AMINE, 60599-38-4, Dose [Inhibitor]: 0.05, 0.1 OR 0.2 MILLIMOLAR/KG DIET FOR 32 WK STARTING 1 WK AFTER THE CARCINOGENDOSE (STUDY DURATION: 33 WK), Strain/Sex: SYRIAN/FEMALE, Target Tissue: Type of Lesion: COMMON DUCT: ADENOMA, Dose [Carcinogen]: 40 MG/KG ONCE) is recorded as 4/10 (40%), 11/26 (42%), -5%, not significant; the “tumour outcome (control, treated, inhibition, significance)” value (Carcinogen: N-NITROSOBIS(2-OXYPROPYL)AMINE, 60599-38-4, Dose [Inhibitor]: 0.05, 0.1 OR 0.2 MILLIMOLAR/KG DIET FOR 32 WK STARTING 1 WK AFTER THE CARCINOGENDOSE (STUDY DURATION: 33 WK), Strain/Sex: SYRIAN/FEMALE, Target Tissue: Type of Lesion: GALL BLADDER: ADENOMA, Dose [Carcinogen]: 40 MG/KG ONCE) was 6/10 (60%), 2/26 (18%), 70%, not significant; the “tumour outcome (control, treated, inhibition, significance)” value (Carcinogen: N-NITROSOBIS(2-OXYPROPYL)AMINE, 60599-38-4, Dose [Inhibitor]: 0.05, 0.1 OR 0.2 MILLIMOLAR/KG DIET FOR 32 WK STARTING 1 WK AFTER THE CARCINOGENDOSE (STUDY DURATION: 33 WK), Strain/Sex: SYRIAN/FEMALE, Target Tissue: Type of Lesion: LIVER : ADENOMA, Dose [Carcinogen]: 40 MG/KG ONCE) is listed as 6/10 (60%), 10/26 (39%), 35%, not significant; the “tumour outcome (control, treated, inhibition, significance)” value (Carcinogen: N-NITROSOBIS(2-OXYPROPYL)AMINE, 60599-38-4, Dose [Inhibitor]: 0.05, 0.1 OR 0.2 MILLIMOLAR/KG DIET FOR 32 WK STARTING 1 WK AFTER THE CARCINOGENDOSE (STUDY DURATION: 33 WK), Strain/Sex: SYRIAN/FEMALE, Target Tissue: Type of Lesion: PANCREAS: ADENOMA, Dose [Carcinogen]: 40 MG/KG ONCE) was 10/10 (100%), 26/26 (100%), 0%, not significant. The “tumour outcome (control, treated, inhibition, significance)” value was 4/10 (40%), 14/26 (54%), -35%, not significant (Carcinogen: N-NITROSOBIS(2-OXYPROPYL)AMINE, 60599-38-4, Dose [Inhibitor]: 0.05, 0.1 OR 0.2 MILLIMOLAR/KG DIET FOR 32 WK STARTING 1 WK AFTER THE CARCINOGENDOSE (STUDY DURATION: 33 WK), Strain/Sex: SYRIAN/FEMALE, Target Tissue: Type of Lesion: PANCREAS: CARCINOMA, Dose [Carcinogen]: 40 MG/KG ONCE); 12/12 (100%), 29/29 (100%), 0%, not significant (Carcinogen: N-NITROSOBIS(2-OXYPROPYL)AMINE, 60599-38-4, Dose [Inhibitor]: 0.05, 0.1 OR 0.2 MILLIMOLAR/KG DIET FOR 32 WK STARTING 1 WK AFTER THE CARCINOGENDOSE (STUDY DURATION: 33 WK), Strain/Sex: SYRIAN/MALE, Target Tissue: Type of Lesion: PANCREAS: ADENOMA, Dose [Carcinogen]: 40 MG/KG ONCE); 6/12 (50%), 12/29 (41%), 18%, not significant (Carcinogen: N-NITROSOBIS(2-OXYPROPYL)AMINE, 60599-38-4, Dose [Inhibitor]: 0.05, 0.1 OR 0.2 MILLIMOLAR/KG DIET FOR 32 WK STARTING 1 WK AFTER THE CARCINOGENDOSE (STUDY DURATION: 33 WK), Strain/Sex: SYRIAN/MALE, Target Tissue: Type of Lesion: PANCREAS: CARCINOMA, Dose [Carcinogen]: 40 MG/KG ONCE).
